This note sets out measurements from US11932870B2, “Compositions and methods for immune cell modulation in adoptive immunotherapies” (Fate Therapeutics, Inc., priority 2016, dated 2024).

“Also recorded” adds a separate entry of the source.

In one test the test system is viable CD8+ population. As to the kind of experiment: T cell compound screen: CCR7+CD62L+ cells in the viable CD8+ population (flow cytometry). The test is classed as cell-based, human. As to conditions: 10 μM, about 6 days, anti-CD3/anti-CD28 beads; hit = Z-score > +2 for percent or absolute number CCR7+CD62L+ in CD8+. The source says:
(§1) In Vitro T Cell Culture. Fresh leukopaks (AllCells, Alameda, CA) were obtained from healthy donors, from which T cells were negatively selected using the EasySep Human T cell Enrichment Kit (Stem Cell Technologies, Vancouver, Canada). The freshly isolated T cells were aliquoted and cryopreserved. On the day the screens were initiated, T cells were thawed and washed into X-Vivo 15 with 5% human AB serum, IL-2, pen/strep, and additional supplements. Cells were dispensed into flat-bottom 384-well plates at 5×10^5 cells/ml with anti-CD3/anti-CD28 beads. Individual compounds were added at a final concentration of 10 μM to each well from column 3 to column 22 of each plate. Positive and negative controls were added to additional wells. Cells were incubated for about 6 days at 37 degrees with 5% CO2.
(§2) Flow Cytometry. On Day 6 of culture, cells were stained with a fixable viability marker and fluorophore-conjugated antibodies: CD3, CD4, CD8, CD45RA, CD45RO, CD62L, CCR7, CD27, and CD122 (BD Biosciences, San Jose, CA; and BioLegend, San Diego, CA). Fluorescent absolute counting beads (Spherotech, Lake Forest, IL) were added just prior to acquisition. Data acquisition was performed on a BD Fortessa X-20 (BD Biosciences) and data were analyzed using Treestar software (FlowJo, Ashland, OR) and Spotfire (Tibco, Boston, MA).
(§3) These cells are characterized by expression of CCR7 and CD62L. Therefore, cells co-expressing both of these identifying markers were evaluated. Within the viable CD4+ population and viable CD8+ population, the percent of cells co-expressing CCR7 and CD62L was determined. The expression of either CD62L or CCR7 on T cells, as indicative of the desired T cell subsets, have been described as having favorable functional characteristics for CAR-T cell therapy, and potentially other adoptive T cell therapies.
(§4) The number of events in each of these gates relative to the number of absolute counting beads in each sample was calculated, defining a measure of the absolute number of naïve, stem cell memory, or central memory T cells within the CD4+ and/or CD8+ populations. A z-Score relative to the screened compound samples within each 384-well plate was calculated for each of these four values: 1) percent CCR7+CD62L+in CD4+, 2) percent CCR7+CD62L+in CD8+, 3) absolute relative number of CCR7+CD62L+in CD4+, and 4) absolute number of CCR7+CD62L+in CD8+(FIGS. 1A and 1i). Z-scores were also calculated for the percent viability of all cells within each sample and the relative absolute number of cells within each sample. A “Z-Score” is a statistical measurement of a score's relationship to the mean in a group of scores. AZ-score of 0 means the score is the same as the mean. AZ-score can also be positive or negative, indicating whether it is above or below the mean and by how many standard deviations.

The next test deals with viable CD4+ population. The test is described as follows: T cell compound screen: CCR7+CD62L+ cells in the viable CD4+ population (flow cytometry). The class given is cell-based, human. As to conditions: 10 μM, about 6 days, anti-CD3/anti-CD28 beads; hit = Z-score > +2 for percent or absolute number CCR7+CD62L+ in CD4+.
Text: as §1, §2, §3, §4
Background: A flow cytometer gives signals particle by particle.

In test [1] the test system is CAR-T cells co-cultured with irradiated K562 tumor cells that express CD19. As to the kind of experiment: In vitro serial killing/re-stimulation assay. The test is classed as cell-based, human. As to conditions: relative to vehicle. An excerpt: An informative clinical parameter that can in some contexts be indicative of likelihood of successful adoptive cell therapy in clinical trials is the ability and extent of expansion of the transferred cells in the patient post-treatment and/or persistence and continued function following initial expansion, e.g., in the context of continued exposure to antigen. The ability of engineered T cells to persist and continue expanding over multiple rounds of antigen stimulation can be indicative of such features and/or likelihood of in vivo function or clinical response. An in vitro serial killing/re-stimulation assay, where the T cells treated by each compound were evaluated for various functions, including expansion and ability to kill tumor cells expressing the target antigen in vitro over multiple rounds of exposure to and withdrawal from antigen, was used as a model system. Such assays were carried out on cells treated with or without compounds, to assess the impact of individual compounds on cell function after repeated encounter with antigen, and cell expansion or persistence in such contexts.
CD8 T cells were activated, transduced, and expanded in the presence of DMSO, TWS119, or DCC-2036. At the end of the expansion, the CAR-T cells were cryopreserved. The serial re-stimulation assay was performed by thawing the CAR-T cells and co-culturing with irradiated K562 tumor cells that express CD19, the antigen recognized by the CAR. Prior to starting each round of killing, cell numbers were adjusted so that CAR-T cell numbers were substantially the same from the cultures generated with DMSO, TWS119, and DCC-2036 treatment respectively. An equal number of irradiated CD19-expressing K562 target cells were added to the different CAR-T cultures.

The next test has as its system Nalm-6-luc tumor cells. The test is described as follows: In vivo tumor clearance by compound-treated CD19 CAR-T cells. To be noted: NSG mice with Nalm-6-luc; 2.0×10^5 cryopreserved compound-treated CAR-T cells per animal (1:1 CD4:CD8); imaging; FIGS. 7 and 8. How it is done:
NSG mice were injected with Nalm-6-luc, a CD19+ human tumor line engineered to express firefly luciferase. CAR-T cells were generated from CD4+ and CD8+ T cells that were separately activated and expanded in vitro. The cells were transduced with the CAR-2 construct (FIG. 2) one day after activation and then replated into 24-well GREX plates with or without the compounds. Half the media was replaced every two days thereafter until harvest one week post-activation. Cells were cryopreserved and then thawed for use. NSG mice were infused with tumor cells followed […] by CAR-T transfer via retroorbital injection. Four days after IV. injection with Nalm-6-luc cells, mice were treated with 2.0×10^5 CAR-T cells per animal (1:1 CD4:CD8). The mice were imaged periodically to determine tumor burden.

On to `CNC(=O)c1cc(Oc2ccc(NC(=O)Nc3cc(C(C)(C)C)nn3-c3ccc4ncccc4c3)c(F)c2)ccn1` [DCC-2036, Rebastinib], for which the “CD8 Hit” value with viable CD8+ population is given as “CD8”. Also, the “CD4 Hit” value in the test on viable CD4+ population was “CD4”. Also, the “cell number expansion of CAR-T cells in rounds 3 and 4 of the serial re-stimulation assay” value in test [1] (FIG. 3C) is reported as “much higher than the vehicle control”. Further, the “total expansion in CAR-T cell number through all 4 rounds of the serial re-stimulation assay” value in test [1] (FIG. 3D) is listed as “much greater expansion relative to the vehicle control; also recorded: improves cell expansion”. The “tumor burden / tumor control” value in the test on Nalm-6-luc tumor cells is reported as “dramatically reduced tumor burden; also recorded: able to clear tumor from the majority of mice”.
